Values of other authors in US20050020546A1, “Pharmaceutical compositions comprising active vitamin D compounds” (Novacea, Inc., priority 2003, published 2005).

Settings: compared with calcitriol

| Compound | Hypercalcemic effect |
| --- | --- |
| C=C1/C(=C\C=C2/CCC[C@]3(C)C([C@H](C)CC#CC(C)(C)O)=CC[C@@H]23)C[C@@H](O)C[C@@H]1O [Ro23-7553] | reduced hypercalcemic effect |
| C=C1/C(=C/C=C2\CCC[C@]3(C)C([C@H](C)CC#CC(O)(C(F)(F)F)C(F)(F)F)=CC[C@@H]23)C[C@@H](O)C[C@@H]1O [Ro24-5531] | reduced hypercalcemic effect |
